In assay [1] the test system is patients with CHF. The assay is described as follows: US Carvedilol Heart Failure Trials: mortality studies in CHF patients (multicenter, double-blind, placebo-controlled, intention-to-treat). Format: in vivo, humans. Set-up: All Cause Mortality / Risk Reduction, all-cause mortality / Mortality / Risk Reduction, mortality: concentration or dose not given beside the values. The note with it: for Risk Reduction, mortality / Risk Reduction, all-cause mortality: versus placebo. The source says: To determine if β-adrenergic blockade might inhibit the deleterious effects of the sympathetic nervous system on survival in heart failure (CHF), 1052 patients with CHF were prospectively enrolled into a multicenter trial program, in which patients were randomly assigned (double-blind) to 6-12 months' treatment with placebo (PBO) or carvedilol (CRV),. After a common screening period, patients with class II-IV CHF (see next paragraph for the definitions of the classification of CHF) and an ejection fraction ≦0.35 were assigned to one of four protocols based on performance on a 6-minute walk test. PBO or CRV was added to existing therapy with digoxin, diuretics and an ACE inhibitor. All-cause mortality was monitored by a prospectively constituted Data and Safety Monitoring Board (DSMB). After 25 months of enrollment, the DSMB recommended termination of the program because of a favorable effect of CRV on survival. By intention-to-treat, mortality was 8.2% in the PBO group but only 2.9% in the CRV group (P=0.0001, Cochran-Mantel-Haensel analysis). This represented a reduction in risk of death by CRV of 67% (95% CI: 42% to 81%). The treatment effect was similar in patients with class II and class III-IV symptoms. Mortality was reduced in class II patients from 5.9% to 1.9%, a 68% reduction (95% CI: 20% to 97%) [P=0.015,], and in class III-IV patients from 11.0% to 4.2%, a 67% reduction (95% CI: 30% to 84%), [P=0.004, log-rank]. Importantly, the effect of CRV was similar in ischemic heart disease (risk reduced by 67%, P=0.003) and in non-ischemic dilated cardiomyopathy (risk reduced by 67%, P=0.014). […] The treatment effect is seen across a broad range of severity and etiology of disease.
Patients on background therapy with diuretics, ACE inhibitors and/or digoxin were stratified on the basis of baseline submaximal exercise performance, into one of four trials: study 220, a dose response study in moderate (NYHA II-IV) CHF with exercise testing as a primary endpoint study 221, a dose titration study in moderate (NYHA II-IV) CHF with exercise testing as a primary endpoint study 239, a dose titration study in severe (NYHA III-IV) CHF with quality of life as a primary endpoint study 240, a dose titration study in mild (NYHA II-III) CHF with progression of CHF as a primary endpoint Sixty-four centers in the U.S. participated in the trial program. All sites conducted protocols 239 and 240, while 33 performed protocol 220 and 31 performed protocol 221.
Although each trial had its own individual objectives, the overall program objective defined prospectively was evaluation of all-cause mortality. Based upon a projected enrollment of 1100 patients, the program had 90% power to detect a 50% reduction in mortality (two-sided) between carvedilol and placebo, assuming a mortality rate in the placebo group of 12% over the duration of the trials (α=0.05).
Randomization was preceded by a screening and challenge period common to the four protocols The purpose of the screening period was to qualify patients for study entry, obtain reproducible baseline measurements, and stratify patients into the appropriate trial based on submaximal exercise testing. During the challenge period, patients received low-dose open-label carvedilol (6.25 mg b.i.d.) for two weeks. […] Patients tolerating low-dose carvedilol were then randomized to blinded medication (carvedilol or placebo) with the dose titrated over several weeks in the range of 6.25 to 50 mg b.i.d. (or equivalent level of placebo). The maintenance phase of each study ranged from six to 12 months, after which patients had the option of receiving open-label carvedilol in an extension study.
The analysis presented below corresponds to the data set on which the DSMB made the recommendation to terminate the trials. Included in this intent-to-treat analysis are all patients enrolled in the U.S. trials as of Jan. 20, 1995; 624 receiving carvedilol and 356 placebo.

In assay [2] the test system is patients with CHF. The note with it: treatment of CHF; cited from earlier work.
Setting [3] is: Class III-IV CHF, listed as CRV.

We go through three molecules from patent US20030105138A1, “Method of treatment for decreasing mortality resulting from congestive heart failure” (Boehringer Mannheim Pharmaceuticals Corporation- SmithKline …, priority 1995, published 2003).

Consider `COc1ccccc1OCCNCC(O)COc1cccc2[nH]c3ccccc3c12` (stereo not shown) [Carvedilol], for which the Mortality entry in the assay on patients with CHF [1] (Class II CHF) is “(1.9%)”; in the assay on patients with CHF [1] (Class II CHF, listed as CRV) it was 1.9%; in the assay with patients with CHF [1] (Class III-IV CHF), “(4.2%)”; in the assay on patients with CHF [1] (setting [3]), 4.2%; with patients with CHF [1] (Ischemic Etiology), “(3.2%)”; in the assay with patients with CHF [1] (Non-Ischemic Etiology), “(2.5%)”. The “Mortality (deaths/patients)” value with patients with CHF [1] (Class II CHF) is reported as 7/361; in the assay with patients with CHF [1] (Class III-IV CHF) it was 11/263; in the assay on patients with CHF [1] (Ischemic Etiology) it was 10/311; in the assay with patients with CHF [1] (Non-Ischemic Etiology), 8/313. Also, the “Risk Reduction, mortality” value amounted to 68% in the assay with patients with CHF [1] (Class II CHF); 68% in the assay with patients with CHF [1] (Class II CHF, listed as CRV); 66% in the assay with patients with CHF [1] (Class III-IV CHF); 67% in the assay on patients with CHF [1] (setting [3]); 67% with patients with CHF [1] (Ischemic Etiology); 67% with patients with CHF [1] (Ischemic Etiology, listed as CRV). Also, the “Risk Reduction, mortality” value is 67% in the assay with patients with CHF [1] (Non-Ischemic Etiology) and 67% with patients with CHF [1] (Non-Ischemic Etiology, listed as CRV). Moreover, the “All Cause Mortality” value is “(2.9%)” in the assay with patients with CHF [1] (all patients, intent-to-treat) and 2.9% in the assay on patients with CHF [1] (all patients, intent-to-treat, listed as CRV). Moreover, the “All Cause Mortality (deaths/patients)” value in the assay with patients with CHF [1] (all patients, intent-to-treat, added to digoxin, diuretics and ACE inhibitor, 6.25 to 50 mg b.i.d.) was 18/624. Moreover, the “Risk Reduction, all-cause mortality” value with patients with CHF [1] (all patients) turned out to be 67%; with patients with CHF [1] (all patients, listed as CRV) it was 67%.

`CC(C)NCC(O)COc1ccc(COCCOC(C)C)cc1` (stereo not shown) [bisoprolol]: the “Difference in mortality between drug-treated patients and placebo-treated patients” value in the assay on patients with CHF [2] is “no difference in mortality”.

Consider `COCCc1ccc(OCC(O)CNC(C)C)cc1` (stereo not shown) [metoprolol], for which the “Difference in mortality between drug-treated patients and placebo-treated patients” value with patients with CHF [2] is “no difference in mortality”.
